Data: patent publication US20250082665A1, “EYE DROP FORMULATIONS IN THE FORM OF AN AQUEOUS SOLUTION COMPRISING 8-OXO-2'-DEOXYGUANOSINE OR A PHARMACEUTICALLY ACCEPTABLE SALT THEREOF” (RUDACURE CORPORATION, priority 2023, published 2025)

Tests used:
[1] = test system: corneal injuries; conditions: cited from earlier work
[2] = water solubility / solubilization of the compound of Formula 1; assay type: physicochemical

behaviour of aqueous solution obtained by heating when stored at room temperature ([2]; solubilized by heating, stored at room temperature): precipitates
solubility ([2]; water, room temperature (about 25° C.)): 1910 µg/mL
Compound: Nc1nc2c(nc(O)n2[C@H]2C[C@H](O)[C@@H](CO)O2)c(=O)[nH]1 [compound of Formula 1, 8-oxo-2′-deoxyguanosine]
corneal epithelial restoration [1]: rapid corneal epithelial restoration
